Tests used:
HCT116 MTAP null cells = test: HCT116 MTAP null cell proliferation / viability (CellTiter-Glo, 6 days); assay type: cell-based; settings: HCT116-MTAP null, 144 h, HCT116 MTAP null cells, 6 days, CellTiter-Glo; read-out: HCT-116 MTAP null IC50
In short: (§1)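 Viability read by CellTiter-Glo after 6-day compound exposure of MTAP-null and wild-type HCT116 cells grown in RPMI 1640 with 10% FBS. Dosing used 1:3 steps from 1 or 10 μM (8-9 points) or 1:2 steps from 10 or 50 μM (22 points); IC50 taken where fitted curve crosses 50% of control.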

HCT116 WT cells = test: HCT116 WT cell proliferation / viability (CellTiter-Glo, 6 days); assay type: cell-based; settings: Homo sapiens, HCT-116, 144 h, HCT116 WT cells, 6 days, CellTiter-Glo; read-out: HCT-116 WT IC50
In short: as §1

| IC50 (HCT116 MTAP null cells) | IC50 (HCT116 WT cells) | SMILES |
| --- | --- | --- |
| 29 nM | 4200 nM | CC1OCc2c1c(N)nc1ccc(C(=O)N(CC3=CCCOC3)Cc3ccc(C(F)(F)F)cn3)cc21 (stereo not drawn) [Example 915, 4-amino-N-((5,6-dihydro-2H-pyran-3-yl)methyl)-3-methyl-N-((5-(trifluoromethyl)pyridin-2-yl)methyl)-1,3-dihydrofuro[3,4-c]quinoline-8-carboxamide] |
| 6 nM | 200 nM | CC1OCc2c1c(N)nc1ccc(C(=O)N(Cc3ccc(C(F)(F)F)cn3)Cc3ccnc4[nH]ccc34)cc21 (stereo not drawn) [Example 916, N-((1H-pyrrolo[2,3-b]pyridin-4-yl)methyl)-4-amino-3-methyl-N-((5-(trifluoromethyl)pyridin-2-yl)methyl)-1,3-dihydrofuro[3,4-c]quinoline-8-carboxamide] |
| 17 nM | 1560 nM | CC1OCc2c1c(N)nc1ccc(C(=O)N(Cc3ccc(C(F)(F)F)cn3)CC3(C#N)CC3)cc21 (stereo not drawn) [Example 917, 4-amino-N-((1-cyanocyclopropyl)methyl)-3-methyl-N-((5-(trifluoromethyl)pyridin-2-yl)methyl)-1,3-dihydrofuro[3,4-c]quinoline-8-carboxamide] |
| 54 nM | > 1000 nM | CC1OCc2c1c(N)nc1ccc(C(=O)N(Cc3ccc(C(F)(F)F)cn3)Cc3cnc(N)s3)cc21 (stereo not drawn) [Example 918, 4-amino-N-((2-aminothiazol-5-yl)methyl)-3-methyl-N-((5-(trifluoromethyl)pyridin-2-yl)methyl)-1,3-dihydrofuro[3,4-c]quinoline-8-carboxamide] |
| 200 nM | > 1000 nM | CC1OCc2c1c(N)nc1ccc(C(=O)N(C)Cc3ccc(C(F)(F)F)cn3)cc21 (stereo not drawn) [Example 929, 4-amino-N,3-dimethyl-N-((5-(trifluoromethyl)pyridin-2-yl)methyl)-1,3-dihydrofuro[3,4-c]quinoline-8-carboxamide] |
| 61 nM | > 10000 nM | CCN(Cc1ccc(C(F)(F)F)cn1)C(=O)c1ccc2nc(N)c3c(c2c1)COC3C (stereo not drawn) [Example 930, 4-amino-N-ethyl-3-methyl-N-((5-(trifluoromethyl)pyridin-2-yl)methyl)-1,3-dihydrofuro[3,4-c]quinoline-8-carboxamide] |
| 72 nM | 9600 nM | CC1OCc2c1c(N)nc1ccc(C(=O)N(Cc3ccc(C(F)(F)F)cn3)C(C)C)cc21 (stereo not drawn) [Example 931, 4-amino-N-isopropyl-3-methyl-N-((5-(trifluoromethyl)pyridin-2-yl)methyl)-1,3-dihydrofuro[3,4-c]quinoline-8-carboxamide] |
| 860 nM | 1700 nM | CN(Cc1ccc(C(F)(F)F)cn1)C(=O)c1ccc2nc(N)c3c(c2c1)COC3(C)C [Example 932, 4-amino-N,3,3-trimethyl-N-((5-(trifluoromethyl)pyridin-2-yl)methyl)-1,3-dihydrofuro[3,4-c]quinoline-8-carboxamide] |
| 560 nM | > 10000 nM | CCN(Cc1ccc(C(F)(F)F)cn1)C(=O)c1ccc2nc(N)c3c(c2c1)COC3(C)C [Example 933, 4-amino-N-ethyl-3,3-dimethyl-N-((5-(trifluoromethyl)pyridin-2-yl)methyl)-1,3-dihydrofuro[3,4-c]quinoline-8-carboxamide] |
| 79 nM | > 1000 nM | CC(C)N(Cc1ccc(C(F)(F)F)cn1)C(=O)c1ccc2nc(N)c3c(c2c1)COC3(C)C [Example 934, 4-amino-N-isopropyl-3,3-dimethyl-N-((5-(trifluoromethyl)pyridin-2-yl)methyl)-1,3-dihydrofuro[3,4-c]quinoline-8-carboxamide] |
| 630 nM | > 1000 nM | CC1(C)OCc2c1c(N)nc1ccc(C(=O)N(Cc3ccc(C(F)(F)F)cn3)C3CC3)cc21 [Example 935, 4-amino-N-cyclopropyl-3,3-dimethyl-N-((5-(trifluoromethyl)pyridin-2-yl)methyl)-1,3-dihydrofuro[3,4-c]quinoline-8-carboxamide] |
| 721 nM | 18700 nM | CC(c1ncc(C(F)(F)F)cc1C#N)N(C)C(=O)c1cc2c(cc1F)nc(N)c1cnn(C)c12 (stereo not drawn) [Example 936, 4-amino-N-(1-(3-cyano-5-(trifluoromethyl)pyridin-2-yl)ethyl)-7-fluoro-N,1-dimethyl-1H-pyrazolo[4,3-c]quinoline-8-carboxamide] |
